Assay [1] addresses T1, ACOX1 (Homo sapiens, UniProt Q15067).
T1 construct: endogenous in cells
T1 sequence (Q15067 1-660): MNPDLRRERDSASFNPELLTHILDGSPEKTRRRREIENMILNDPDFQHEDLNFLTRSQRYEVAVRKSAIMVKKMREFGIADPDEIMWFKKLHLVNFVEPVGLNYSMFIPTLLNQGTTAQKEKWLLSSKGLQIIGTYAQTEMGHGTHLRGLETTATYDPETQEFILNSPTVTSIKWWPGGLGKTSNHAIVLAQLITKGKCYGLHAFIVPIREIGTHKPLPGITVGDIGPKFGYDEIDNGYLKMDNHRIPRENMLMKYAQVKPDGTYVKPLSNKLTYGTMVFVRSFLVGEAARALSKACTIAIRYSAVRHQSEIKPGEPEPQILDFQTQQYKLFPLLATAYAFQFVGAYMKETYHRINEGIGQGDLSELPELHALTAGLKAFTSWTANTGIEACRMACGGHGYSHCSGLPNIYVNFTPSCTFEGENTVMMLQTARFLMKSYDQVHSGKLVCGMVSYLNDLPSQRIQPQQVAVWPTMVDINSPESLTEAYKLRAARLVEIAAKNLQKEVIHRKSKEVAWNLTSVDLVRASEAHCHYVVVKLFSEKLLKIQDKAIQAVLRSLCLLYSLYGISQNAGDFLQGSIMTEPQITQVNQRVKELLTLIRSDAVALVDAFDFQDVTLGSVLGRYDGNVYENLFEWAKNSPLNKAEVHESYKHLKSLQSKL
As to the kind of experiment: Kinobeads two-dose competition binding: ACOX1.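 Further: competition of compounds with immobilized broad-spectrum kinase inhibitor beads in cell lysate at 100 and 1,000 nM, 45 min at 4 °C, bead-bound protein quantified by label-free MS versus DMSO.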 The note with it: sheet CATDS matrix 2; Gene Name ACOX1.

Assay [2] deals with T2, AAK1 (Homo sapiens, UniProt Q2M2I8).
T2 construct: to maximize the representation of endogenous proteins; endogenous in cells
As to the kind of experiment: Kinobeads two-dose competition binding: AAK1.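 On all read-outs here: kinobeads competition pulldown from cell lysate, compound preincubated 45 min at 4 °C, bead-bound protein measured by label-free mass spectrometry against DMSO vehicle control.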 The settings on record: for potency estimated from few doses: sheet "Kinobeads Drugmatrix - all", unit inferred, same values below 1000 recur in sheet "nanomolar", read-out: Kinobeads Drugmatrix - all: apparent Kd, AAK1; for CATDS: sheet CATDS matrix 2, Gene Name AAK1.

Assay [3] deals with ABL1 (Homo sapiens, UniProt P00519). In words: Kinobeads two-dose competition binding: ABL1. The note with it: sheet CATDS matrix 2; Gene Name ABL1.
Assay [4] addresses T3, ABL2 (Homo sapiens, UniProt P42684).
T3 construct: endogenous in cells
As to the kind of experiment: Kinobeads two-dose competition binding: ABL2. The settings on record: sheet CATDS matrix 2; Gene Name ABL2.

The target in assay [5] is T4, ACAD11 (Homo sapiens, UniProt Q709F0).
T4 construct: endogenous in cells
T4 sequence (Q709F0 1-780): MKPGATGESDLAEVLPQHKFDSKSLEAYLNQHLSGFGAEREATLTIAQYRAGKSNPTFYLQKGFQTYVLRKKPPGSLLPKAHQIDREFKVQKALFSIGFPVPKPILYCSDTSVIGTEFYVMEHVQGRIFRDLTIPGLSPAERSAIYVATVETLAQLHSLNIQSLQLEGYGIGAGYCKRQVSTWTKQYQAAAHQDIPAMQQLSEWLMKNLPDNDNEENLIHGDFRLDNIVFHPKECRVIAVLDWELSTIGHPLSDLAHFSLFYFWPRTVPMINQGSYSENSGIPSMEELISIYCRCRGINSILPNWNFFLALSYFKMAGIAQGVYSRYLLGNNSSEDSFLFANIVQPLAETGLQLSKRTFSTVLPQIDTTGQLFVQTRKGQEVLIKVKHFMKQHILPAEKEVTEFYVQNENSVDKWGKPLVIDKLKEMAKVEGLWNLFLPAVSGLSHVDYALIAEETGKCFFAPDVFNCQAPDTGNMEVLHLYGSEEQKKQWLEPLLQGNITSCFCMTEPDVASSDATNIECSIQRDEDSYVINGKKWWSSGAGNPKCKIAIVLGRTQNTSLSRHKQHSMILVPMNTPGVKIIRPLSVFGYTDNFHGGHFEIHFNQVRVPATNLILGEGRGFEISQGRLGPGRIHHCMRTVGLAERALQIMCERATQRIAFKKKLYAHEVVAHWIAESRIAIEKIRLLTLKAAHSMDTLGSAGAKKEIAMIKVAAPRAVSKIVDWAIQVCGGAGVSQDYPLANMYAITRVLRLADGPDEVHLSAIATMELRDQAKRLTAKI
In words: Kinobeads two-dose competition binding: ACAD11. The note with it: sheet CATDS matrix 2; Gene Name ACAD11.

A value given as a limit tells only on which side of the number the result lay.

ABL1, sequence (P00519 28-1130 limits assumed): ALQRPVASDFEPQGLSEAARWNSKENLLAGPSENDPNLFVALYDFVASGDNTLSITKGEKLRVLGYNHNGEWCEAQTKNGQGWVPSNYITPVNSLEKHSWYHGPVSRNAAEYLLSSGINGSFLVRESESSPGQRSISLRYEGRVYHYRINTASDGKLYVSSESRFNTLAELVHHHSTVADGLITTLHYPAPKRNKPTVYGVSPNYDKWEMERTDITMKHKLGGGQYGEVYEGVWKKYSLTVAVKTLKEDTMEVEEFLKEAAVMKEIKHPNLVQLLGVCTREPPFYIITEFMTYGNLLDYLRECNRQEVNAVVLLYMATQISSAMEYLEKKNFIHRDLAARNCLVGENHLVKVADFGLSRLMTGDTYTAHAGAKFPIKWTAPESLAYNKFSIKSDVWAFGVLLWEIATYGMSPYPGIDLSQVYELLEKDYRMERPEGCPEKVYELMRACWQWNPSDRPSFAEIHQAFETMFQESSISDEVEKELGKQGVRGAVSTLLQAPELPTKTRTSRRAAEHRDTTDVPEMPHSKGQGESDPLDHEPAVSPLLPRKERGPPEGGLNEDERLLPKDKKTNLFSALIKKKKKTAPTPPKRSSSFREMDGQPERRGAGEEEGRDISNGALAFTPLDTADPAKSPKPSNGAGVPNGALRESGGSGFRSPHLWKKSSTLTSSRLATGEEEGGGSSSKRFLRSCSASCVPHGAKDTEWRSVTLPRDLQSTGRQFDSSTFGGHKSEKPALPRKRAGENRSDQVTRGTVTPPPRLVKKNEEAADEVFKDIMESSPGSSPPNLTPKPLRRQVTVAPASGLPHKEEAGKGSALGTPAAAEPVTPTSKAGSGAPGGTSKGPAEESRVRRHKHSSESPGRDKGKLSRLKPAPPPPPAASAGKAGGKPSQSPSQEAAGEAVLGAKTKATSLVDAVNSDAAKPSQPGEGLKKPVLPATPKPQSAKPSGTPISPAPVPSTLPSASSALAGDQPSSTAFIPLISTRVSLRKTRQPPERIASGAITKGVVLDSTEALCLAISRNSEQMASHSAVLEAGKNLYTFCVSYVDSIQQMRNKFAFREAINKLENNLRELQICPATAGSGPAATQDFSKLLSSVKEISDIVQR
T2 sequence (Q2M2I8 whole entry): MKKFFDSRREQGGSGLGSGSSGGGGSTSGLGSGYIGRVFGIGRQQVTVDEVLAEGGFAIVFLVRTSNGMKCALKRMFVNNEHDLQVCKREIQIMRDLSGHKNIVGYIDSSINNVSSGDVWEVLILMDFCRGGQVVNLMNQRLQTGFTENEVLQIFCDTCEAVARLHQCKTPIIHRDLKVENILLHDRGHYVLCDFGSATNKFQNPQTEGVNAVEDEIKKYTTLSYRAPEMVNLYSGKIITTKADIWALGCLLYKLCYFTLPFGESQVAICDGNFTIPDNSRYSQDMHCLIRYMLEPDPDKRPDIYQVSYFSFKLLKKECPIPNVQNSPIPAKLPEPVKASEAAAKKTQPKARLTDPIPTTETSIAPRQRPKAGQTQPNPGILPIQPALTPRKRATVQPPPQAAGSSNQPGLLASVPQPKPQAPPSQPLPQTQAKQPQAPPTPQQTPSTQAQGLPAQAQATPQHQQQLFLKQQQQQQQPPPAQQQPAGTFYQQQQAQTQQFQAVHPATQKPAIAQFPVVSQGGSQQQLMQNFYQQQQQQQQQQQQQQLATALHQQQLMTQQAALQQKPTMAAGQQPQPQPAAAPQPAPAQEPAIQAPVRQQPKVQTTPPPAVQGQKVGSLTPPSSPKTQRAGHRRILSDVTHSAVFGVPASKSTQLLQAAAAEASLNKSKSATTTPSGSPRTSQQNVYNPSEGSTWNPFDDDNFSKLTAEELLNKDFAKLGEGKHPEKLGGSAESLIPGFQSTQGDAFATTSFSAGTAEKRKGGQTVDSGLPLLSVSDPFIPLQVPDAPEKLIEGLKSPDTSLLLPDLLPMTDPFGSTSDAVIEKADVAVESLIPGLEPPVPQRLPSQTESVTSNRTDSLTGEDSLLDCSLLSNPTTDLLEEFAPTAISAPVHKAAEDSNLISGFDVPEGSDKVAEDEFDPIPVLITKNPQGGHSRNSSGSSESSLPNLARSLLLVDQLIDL
T3 sequence (P42684 whole entry): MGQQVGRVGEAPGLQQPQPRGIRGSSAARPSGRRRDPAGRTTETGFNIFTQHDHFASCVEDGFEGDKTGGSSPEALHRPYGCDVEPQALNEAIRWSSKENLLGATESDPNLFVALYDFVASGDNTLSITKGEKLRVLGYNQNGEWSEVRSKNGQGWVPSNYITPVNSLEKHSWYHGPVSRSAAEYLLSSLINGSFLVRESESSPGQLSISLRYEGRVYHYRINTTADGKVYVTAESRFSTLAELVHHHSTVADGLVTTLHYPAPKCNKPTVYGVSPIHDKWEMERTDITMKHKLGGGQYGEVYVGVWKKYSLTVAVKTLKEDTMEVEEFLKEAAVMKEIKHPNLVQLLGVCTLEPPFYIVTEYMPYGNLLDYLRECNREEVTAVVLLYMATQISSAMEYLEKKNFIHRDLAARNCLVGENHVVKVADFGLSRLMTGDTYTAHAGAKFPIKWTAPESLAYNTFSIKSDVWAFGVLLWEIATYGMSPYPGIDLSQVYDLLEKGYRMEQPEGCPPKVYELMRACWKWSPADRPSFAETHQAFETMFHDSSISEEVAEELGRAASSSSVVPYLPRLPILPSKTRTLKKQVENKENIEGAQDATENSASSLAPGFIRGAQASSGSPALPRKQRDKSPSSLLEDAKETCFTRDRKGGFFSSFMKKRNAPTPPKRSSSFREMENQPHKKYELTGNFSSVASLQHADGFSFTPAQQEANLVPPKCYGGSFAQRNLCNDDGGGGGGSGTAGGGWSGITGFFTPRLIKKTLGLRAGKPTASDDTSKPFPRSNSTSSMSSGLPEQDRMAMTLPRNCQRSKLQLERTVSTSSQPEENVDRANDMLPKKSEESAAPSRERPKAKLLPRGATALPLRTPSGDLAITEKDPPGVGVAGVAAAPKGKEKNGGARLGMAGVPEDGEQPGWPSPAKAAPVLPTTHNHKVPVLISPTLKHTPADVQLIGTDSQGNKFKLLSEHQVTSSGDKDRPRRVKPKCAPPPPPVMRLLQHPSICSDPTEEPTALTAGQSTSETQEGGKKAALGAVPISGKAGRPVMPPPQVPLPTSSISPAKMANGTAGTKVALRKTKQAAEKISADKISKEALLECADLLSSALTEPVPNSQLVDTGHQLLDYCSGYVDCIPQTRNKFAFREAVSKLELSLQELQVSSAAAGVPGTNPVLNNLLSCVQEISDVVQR

`NCC(NC(=O)c1cc(-c2cn[nH]c2)c(-c2ccnc3[nH]ccc23)s1)c1ccccc1` (stereo not drawn) [GSK1325775A]: the CATDS in assay [1], in assay [2], in assay [3], in assay [4] and in assay [5] was 0 each time. In addition, the potency estimated from few doses in assay [2] was over 1000 nM.

Turning to `Cc1ccc(NC(=O)c2cccc(N3CCCCC3)c2)cc1-c1ccc(C(=O)NCC2CC2)cc1` [GSK1917008A], the CATDS in assay [1], in assay [2], in assay [3], in assay [4] and in assay [5] was 0 throughout.

As to `c1ccc(Cc2nc3ccc(Nc4ncnc5ccccc45)cc3[nH]2)cc1` [GR269666A_KCGS], the CATDS in assay [1], in assay [2], in assay [3], in assay [4] and in assay [5] was 0 each time.

As for `COc1cc2ncn(-c3cc(OCc4ccccc4C(F)(F)F)c(C(C)=O)s3)c2cc1OC` [GSK1030059A], the CATDS in assay [1], in assay [2], in assay [3], in assay [4] and in assay [5] was 0 each time.

In the case of `Cc1ccc(NC(=O)c2cccc(C#N)c2)cc1-c1ccc(C(=O)Nc2ccncc2)cc1` [GSK1398463A], the CATDS in assay [1], in assay [2], in assay [3], in assay [4] and in assay [5] was 0 throughout.

Regarding `Cc1cccc(Nc2nc(NCCN)ncc2C(N)=O)c1` [GSK1292139B], the CATDS in assay [1] is recorded as 0; in assay [2], 0.21; in assay [3], 0; in assay [4] it was 0; in assay [5], 0. Also, the potency estimated from few doses in assay [2] is 164 nM.

In the case of `NC(=O)c1sc(-n2cnc3ccccc32)cc1OCc1ccccc1F` [GSK1024306A], the CATDS in assay [1], in assay [2], in assay [3], in assay [4] and in assay [5] was 0 throughout.

As for `COc1ccc(C[C@@H](CN)NC(=O)c2cc(Br)c(-c3ccnc4[nH]ccc34)s2)cc1` [GSK1389063A], the CATDS in assay [1], in assay [2], in assay [3], in assay [4] and in assay [5] was 0 throughout.

On to `O=C(NCCNc1ccnc(Nc2ccc(F)cc2)n1)Nc1ccccc1F` [GSK1379880A], for which the CATDS in assay [1], in assay [2], in assay [3], in assay [4] and in assay [5] was 0 throughout.

On to `COc1cc2c(cc1Nc1nc(Nc3ccsc3C(N)=O)c3cc[nH]c3n1)N(C(=O)CN(C)C)CCC2` [GSK2110236A], for which the CATDS in assay [1], in assay [2], in assay [3], in assay [4] and in assay [5] was 0 each time.

Regarding `COc1ccc(Nc2nccc(N3CCC(NC(=O)c4cccc(NC(C)=O)c4)C3)n2)cc1` (stereo not drawn) [GSK1379732A], the CATDS in assay [1], in assay [2], in assay [3], in assay [4] and in assay [5] was 0 in each case.

As to `CN(C)C(=O)/C(C#N)=C/c1ccc(-c2nc3cnc4[nH]ccc4c3n2C2CCCCC2)o1` [FM-381], the CATDS in assay [1], in assay [2], in assay [3], in assay [4] and in assay [5] was 0 throughout. In addition, in assay [2], the potency estimated from few doses was over 1000 nM.

On to `O=c1cc(N2CCOCC2)nc2n(Cc3cccc(Cl)c3Cl)c(C3CC3)nn12` [GSK2358994A], for which the CATDS in assay [1], in assay [2], in assay [3], in assay [4] and in assay [5] was 0 each time.

Turning to `CCCN1CCC(Oc2cc(Nc3nc(Nc4cccc(F)c4C(N)=O)c4cc[nH]c4n3)c(OC)cc2Cl)CC1` [GSK1713088A], the CATDS in assay [1], in assay [2], in assay [3], in assay [4] and in assay [5] was 0 in each case.

Regarding `COc1ccc2ncnc(Nc3ccc(OCc4ccccc4)cc3)c2c1` [GI261520A], the CATDS in assay [1], in assay [2], in assay [3], in assay [4] and in assay [5] was 0 throughout.

On to `COc1ccc(S(=O)(=O)NC2CCN(c3cc(C)nc(Nc4cccc(C#N)c4)n3)CC2)cc1` [GSK1653539A], for which the CATDS in assay [1], in assay [2], in assay [3], in assay [4] and in assay [5] was 0 throughout.

Regarding `CCNC(=O)O[C@H]1CN[C@H](C#Cc2cc3ncnc(Nc4ccc(OCc5cccc(F)c5)c(Cl)c4)c3s2)C1` [GSK192082A], the CATDS in assay [1], in assay [2], in assay [3], in assay [4] and in assay [5] was 0 throughout.

Turning to `CCN1CCN(Cc2ccc(C(=O)Nc3ccc(C)c(Oc4ccc5c(c4)CC(=O)N5)c3)cc2C(F)(F)F)CC1` [DDR1-in-1], the CATDS in assay [1], in assay [2], in assay [3], in assay [4] and in assay [5] was 0 throughout.

Consider `NCC1CCC(CNc2nc(NCc3ccccc3OC(F)(F)F)ncc2[N+](=O)[O-])CC1` (stereo not drawn) [BIRZ0518XX], for which the CATDS in assay [1], in assay [2], in assay [3], in assay [4] and in assay [5] was 0 in each case.

Consider `CCC(NN(C)C)=C1C(=O)Nc2ccc(C(C)=O)cc21` [BI00036838], for which the CATDS in assay [1], in assay [2], in assay [3], in assay [4] and in assay [5] was 0 throughout.

Consider `CSc1nn2c(=O)cc(N3CCOCC3)nc2n1Cc1cccc(Cl)c1Cl` [GSK2347225A], for which the CATDS in assay [1], in assay [2], in assay [3], in assay [4] and in assay [5] was 0 each time.

Regarding `NCC1CNC(=O)c2cc3ccc(C(=O)Nc4cccnc4)cc3n2C1` (stereo not drawn) [BI00614644], the CATDS in assay [1], in assay [2], in assay [3], in assay [4] and in assay [5] was 0 each time.

Turning to `COc1cc(Nc2nccc(N3CCC(NC(=O)Nc4cccc(C(C)=O)c4)C3)n2)cc(OC)c1OC` (stereo not drawn) [GSK1379753A], the CATDS in assay [1], in assay [2], in assay [3], in assay [4] and in assay [5] was 0 each time.

On to `CC(C(=O)NC1CCN(c2ccnc(Nc3ccc(F)cc3)n2)C1)c1ccc(Cl)cc1` (stereo not drawn) [GSK1379713A], for which the CATDS in assay [1], in assay [2], in assay [3], in assay [4] and in assay [5] was 0 each time.

Values taken from article PMC11062922 (Nature Chemical Biology, 2023).
